Measurements taken from patent US20130143929A1, “FUNGICIDAL IMIDAZOLES” (EI DU PONT DE NEMOURS AND COMPANY, priority 2010, published 2013).
Marks after values point to notes of the source that are not given here.

Tests used:
Assay type in all cases: in vivo
[1] = test system: Botrytis cinerea (the causal agent of tomato Botrytis); test: Test C: tomato Botrytis, preventive spray on tomato seedlings, visual disease rating; settings: for Test C rating (100 = 100% disease control, 0 = no disease control relative to the controls): tomato Botrytis, preventive spray on tomato seedlings; for Test C rating (% disease control, tomato Botrytis): no asterisk: standard test suspension concentration, 100 = 100% disease control, 0 = no control relative to controls
In short: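 Preventive test: B. cinerea spore inoculation one day after tomato seedlings were sprayed to run-off with compound suspended in 50/50 acetone–water plus 250 ppm surfactant. Plants held 48 h at 20° C in saturated air, then 3 days at 24° C; visual ratings scored 100 (full control) to 0 versus controls; some entries used 40 ppm.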

[2] = test system: Puccinia recondite f. sp. tritici (the causal agent of wheat leaf rust); test: Test A: wheat leaf rust, preventive spray on wheat seedlings, visual disease rating; settings: for Test A rating (100 = 100% disease control, 0 = no disease control relative to the controls): wheat leaf rust, preventive spray on wheat seedlings; for Test A rating (% disease control, wheat leaf rust): no asterisk: standard test suspension concentration, 100 = 100% disease control, 0 = no control relative to controls
In short: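 This was a preventive test: Puccinia recondite f. sp. tritici inoculum was applied one day after compound spray to run-off. Test suspensions were made in 50/50 acetone/water with 250 ppm surfactant, at 200 ppm (800 g/ha equivalent) or 40 ppm. Visual ratings of % disease control relative to controls were made after 24 h of saturated humidity and 7 growth-chamber days, all at 20° C.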

[3] = test system: Blumeria graminis f. sp. tritici (also known as Erysiphe graminis f. sp. tritici, the causal agent of wheat powdery mildew); test: Test D: wheat powdery mildew, preventive spray on wheat seedlings, visual disease rating; settings: for Test D rating (100 = 100% disease control, 0 = no disease control relative to the controls): wheat powdery mildew, preventive spray on wheat seedlings; for Test D rating (% disease control, wheat powdery mildew): no asterisk: standard test suspension concentration, 100 = 100% disease control, 0 = no control relative to controls
In short: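 Preventive test: seedlings sprayed to run-off and inoculated with powdery mildew spores one day later. Suspensions were made in 50/50 acetone/water with 250 ppm Trem 014 surfactant (200 ppm equals 800 g/ha). Visual ratings after 8 days at 20 °C give percent disease control versus controls.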

[4] = test system: Septoria tritici (the causal agent of wheat leaf blotch); test: Test B: wheat leaf blotch, preventive spray on wheat seedlings, visual disease rating; settings: for Test B rating (100 = 100% disease control, 0 = no disease control relative to the controls): wheat leaf blotch, preventive spray on wheat seedlings; for Test B rating (% disease control, wheat leaf blotch): no asterisk: standard test suspension concentration, 100 = 100% disease control, 0 = no control relative to controls
In short: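 Preventive test: Septoria tritici spores applied one day after run-off spraying of seedlings (200 ppm equals 800 g/ha; some tests 40 ppm). After 48 h at 24 °C saturated atmosphere and 19 days at 20 °C, disease scored visually as % control relative to untreated plants.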

[5] = no asterisk (standard test suspension concentration, not 40 ppm)
[6] = asterisk: 40 ppm test suspension

Row | SMILES | Test C rating (100 = 100% disease control, 0 = no disease control relative to the controls) [1, 5] [%] | Test A rating (100 = 100% disease control, 0 = no disease control relative to the controls) [2, 5] [%] | Test D rating (100 = 100% disease control, 0 = no disease control relative to the controls) [3, 5] [%] | Test B rating (100 = 100% disease control, 0 = no disease control relative to the controls) [4, 5] [%] | Test C rating (100 = 100% disease control, 0 = no disease control relative to the controls) [1, 6] | Test A rating (100 = 100% disease control, 0 = no disease control relative to the controls) [2, 6] | Test D rating (100 = 100% disease control, 0 = no disease control relative to the controls) [3, 6] | Test B rating (100 = 100% disease control, 0 = no disease control relative to the controls) [4, 6] | also measured
1 | OC(c1ccc(F)cc1F)c1c(Cl)nc(Cl)n1-c1ccc(Cl)cc1Cl (single isomer, unassigned) [compound 21] | 100 | 100 | 69 | 100 |  |  |  |  | 
2 | Cc1cc(Cl)ccc1C(O)c1c(Cl)nc(C)n1-c1c(F)cccc1F (stereo not shown) [compound 159] |  |  |  |  | 99* % | 99* % | 97* % | 100* % | 
3 | Cc1ncn(-c2c(F)cc(F)cc2Cl)c1C(O)c1ccc(F)cc1F (racemic) [compound 12] | 95 | 99 | 21 | 100 |  |  |  |  | 
4 | Cc1cc(F)ccc1C(O)c1c(Cl)nc(C)n1-c1c(F)cccc1Br (stereo not shown) [compound 407] |  |  |  |  |  |  |  |  | Test C rating (% disease control, tomato Botrytis) [1]: 52%; Test A rating (% disease control, wheat leaf rust) [2]: 99%; Test D rating (% disease control, wheat powdery mildew) [3]: 0%; Test B rating (% disease control, wheat leaf blotch) [4]: 100%
5 | Cc1nc(Cl)c(C(O)c2ccc(F)cc2F)n1-c1c(F)cccc1F (stereo not shown) [compound 131] |  |  |  |  | 99* % | 100* % | 99* % | 100* % | 
6 | COc1ccc(C(O)c2c(Cl)nc(C)n2-c2c(F)cc(F)cc2Br)c(Cl)c1 (racemic) [compound 231] |  |  |  |  | 99* % | 100* % | 98* % | 100* % | 
7 | Cc1cc(F)ccc1C(O)c1cnc(C)n1-c1c(F)cccc1F (stereo not shown) [compound 80] | 0 | 99 | 0 | 100 |  |  |  |  | 
8 | Cc1cc(F)ccc1C(O)c1c(Br)nc(C)n1-c1c(Cl)cccc1Cl (stereo not shown) [compound 367] | 96 | 98 | 96 | 100 |  |  |  |  | 
9 | COc1ccc(C(O)c2c(Cl)ncn2-c2c(F)cccc2F)c(Cl)c1 (racemic) [compound 260] | 100 | 100 | 96 | 100 |  |  |  |  | 
10 | Cc1nc(Cl)c(C(O)c2ccc(F)cc2Cl)n1-c1c(F)cc(F)cc1Br (stereo not shown) [compound 137] |  |  |  |  | 100* % | 100* % | 87* % | 100* % | 
11 | Cc1nc(Br)n(-c2c(F)cc(F)cc2Cl)c1C(O)c1ccc(F)cc1F (racemic) [compound 250] |  |  |  |  | 100* % | 100* % | 100* % | 100* % | 
12 | Cc1nc(Cl)c(C(O)c2ccc(F)cc2Cl)n1-c1c(F)cc(C#N)cc1F (stereo not shown) [compound 198] |  |  |  |  | 0* % | 97* % | 0* % | 100* % | 
13 | COc1ccc(C(O)c2c(Br)nc(Br)n2-c2ccc(F)cc2Cl)c(Cl)c1 (stereo not shown) [compound 355] |  |  |  |  | 100* % | 100* % | 97* % | 100* % | 
14 | Cc1ncc(C(O)c2ccc(F)cc2F)n1-c1c(F)cc(Cl)cc1F (stereo not shown) [compound 122] |  |  |  |  | 0* % | 98* % | 0* % | 100* % | 
15 | OC(c1ccc(F)cc1F)c1c(Cl)nc(Cl)n1-c1ccc(Cl)cc1Cl (single isomer, unassigned) [compound 22] | 98 | 100 | 0 | 100 |  |  |  |  | 
16 | COc1ccc(C(O)c2cnc(C)n2-c2ccc(F)cc2Br)c(F)c1 (stereo not shown) [compound 303] |  |  |  |  | 8* % | 74* % | 0* % | 43* % | 
17 | OC(c1ccc(F)cc1Cl)c1c(Br)ncn1-c1ccc(F)cc1Cl (racemic) [compound 215] |  |  |  |  | 55* % | 92* % | 0* % | 85* % | 
18 | Cc1ncc(C(O)c2c(F)cc(Cl)cc2F)n1-c1ccc(F)cc1Cl (stereo not shown) [compound 359] | 0 | 68 | 0 | 0 |  |  |  |  | 
19 | Cc1cc(F)ccc1C(O)c1cnc(C)n1-c1ccc(F)cc1F (stereo not shown) [compound 415] |  |  |  |  |  |  |  |  | Test C rating (% disease control, tomato Botrytis) [1]: 0%; Test A rating (% disease control, wheat leaf rust) [2]: 74%; Test D rating (% disease control, wheat powdery mildew) [3]: 0%; Test B rating (% disease control, wheat leaf blotch) [4]: 18%
20 | Cc1nc(Br)c(C(O)c2ccc(F)cc2F)n1-c1c(F)cc(F)cc1Br (stereo not shown) [compound 394] |  |  |  |  |  |  |  |  | Test C rating (% disease control, tomato Botrytis) [1]: 100%; Test A rating (% disease control, wheat leaf rust) [2]: 100%; Test D rating (% disease control, wheat powdery mildew) [3]: 72%; Test B rating (% disease control, wheat leaf blotch) [4]: 100%
21 | Cc1ncc(C(O)c2ccc(F)cc2Cl)n1-c1ccc(F)cc1F (stereo not shown) [compound 360] | 67 | 99 | 0 | 93 |  |  |  |  | 
22 | Cc1ncc(C(O)c2ccc(F)cc2F)n1-c1c(F)cc(F)cc1Br (stereo not shown) [compound 410] |  |  |  |  |  |  |  |  | Test C rating (% disease control, tomato Botrytis) [1]: 97%; Test A rating (% disease control, wheat leaf rust) [2]: 100%; Test D rating (% disease control, wheat powdery mildew) [3]: 13%; Test B rating (% disease control, wheat leaf blotch) [4]: 100%
23 | Cc1ncc(C(O)c2ccc(F)cc2Cl)n1-c1c(F)cc(F)cc1Br (stereo not shown) [compound 74] | 100 | 100 | 0 | 100 |  |  |  |  | 
24 | Cc1cc(F)ccc1C(O)c1c(Cl)nc(C)n1-c1c(F)cc(Cl)cc1F (stereo not shown) [compound 111] |  |  |  |  | 0* % | 98* % | 0* % | 100* % | 
25 | Cc1nc(Cl)c(C(O)c2ccc(F)cc2Br)n1-c1c(F)cc(F)cc1Br (stereo not shown) [compound 70] |  |  |  |  | 99* % | 100* % | 43* % | 100* % | 
